Literature values as cited in patent US20050171434A1, “Chromophore probes for optical imaging” (VisEn Medical, Inc., priority 2002, published 2005).

In the case of Cy5.5, the λem (emission wavelength) is given as 694 nm and the λex (excitation wavelength) is given as 675 nm.
